# In article PMC9823097, “Dysregulation of PRMT5 in chronic lymphocytic leukemia promotes progression with high risk of Richter’s transformation” (Nature Communications, 2023):
# Several values for one entry are separate records, joined by “and”; a condition that tells them apart may be missing. Equal entries are not always repeated.
# How the values were obtained:
# PRMT5 in Mec-1 cell line = assay: Cas9-mediated doxycycline-inducible knockout of PRMT5, Mec-1 proliferation; format: cell-based; conditions: +doxy
# Source text: Proteins extracted from whole-cell lysates were resolved by SDS-PAGE and transferred on nitrocellulose membrane as previously described. CpG685 oligonucleotide was obtained from the OSU Cytogenetics Core Lab. Antibodies used for immunoblots included anti-human PRMT5 (Abcam #ab109451), GAPDH (Millipore Sigma #MAB374), SDMA (Cell Signaling Technology #13222), c-Myc (Cell Signaling Technology #5605S), and β-Actin (Cell Signaling Technology #4967S). Cas9-mediated doxycycline-inducible knockout of PRMT5 utilized a targeted sgRNA (guide sequence: […], PAM: GGG).
# HG3 cells = assay: Cell growth curves over 12 days, HG3; format: cell-based; conditions: for anti-proliferative potency compared to PRT382: HG3
# Experimental: (§1) Live cells/mL were counted on days 3, 6, 10, and 12. […] The split factor was calculated at indicated time points by dividing the counted cells/mL by 3E5. Cell growth was extrapolated over time by multiplying the subsequent cell count by the previous split factor. Cell growth is plotted as fold change relative to DMSO-treated cells.
# Mec-1 cells = assay: Cell growth curves over 12 days, Mec-1; format: cell-based; conditions: for anti-proliferative potency compared to PRT382: Mec-1
# Experimental: as §1
# [1] = test system: PRMT5 expression in CLL cells; assay: PRMT5 mRNA and protein expression in CpG-stimulated CLL cells upon BRD4 inhibition; format: cell-based, human
# [2] = test system: BRD4 occupancy at the PRMT5 locus; assay: ChIP-seq of H3K27Ac and BRD4 binding at the PRMT5 locus; format: cell-based; conditions: vehicle, CpG, or PLX51107 treatment
compound,measurement,setting,value
C[C@H]1c2cccc(O)c2C(O)=C2C(=O)[C@]3(O)C(O)=C(C(N)=O)C(=O)[C@@H](N(C)C)[C@@H]3[C@@H](O)[C@@H]21 [+doxy],Rep. 1 Live cells/mL,PRMT5 in Mec-1 cell line; 1 days treated,170000 cells/mL
same,Rep. 2 Live cells/mL,PRMT5 in Mec-1 cell line; 1 days treated,158000 cells/mL
same,Rep. 1 Live cells/mL,PRMT5 in Mec-1 cell line; 2 days treated,387000 cells/mL
same,Rep. 2 Live cells/mL,PRMT5 in Mec-1 cell line; 2 days treated,352000 cells/mL
same,Rep. 1 Live cells/mL,PRMT5 in Mec-1 cell line; 3 days treated,686000 cells/mL
same,Rep. 2 Live cells/mL,PRMT5 in Mec-1 cell line; 3 days treated,721000 cells/mL
same,Rep. 1 Live cells/mL,PRMT5 in Mec-1 cell line; 4 days treated,991000 cells/mL
same,Rep. 2 Live cells/mL,PRMT5 in Mec-1 cell line; 4 days treated,944000 cells/mL
same,Rep. 1 Live cells/mL,PRMT5 in Mec-1 cell line; 5 days treated,827000 cells/mL
same,Rep. 2 Live cells/mL,PRMT5 in Mec-1 cell line; 5 days treated,862000 cells/mL
same,Rep. 1 Live cells/mL,PRMT5 in Mec-1 cell line; 6 days treated,1180000 cells/mL
same,Rep. 2 Live cells/mL,PRMT5 in Mec-1 cell line; 6 days treated,1280000 cells/mL
Nc1ncnc2c1ccn2C1OC(C(O)c2ccc(Cl)c(F)c2)C(O)C1O (stereo not shown) [PF-06855800],Rep 1 Live Cells [Fold Change],"HG3 cells; HG3, 1 nM, day 0",1 Fold Change
same,Rep 2 Live Cells [Fold Change],"HG3 cells; HG3, 1 nM, day 0",1 Fold Change
same,Rep 1 Live Cells [Fold Change],"HG3 cells; HG3, 1 nM, day 3",3.4 Fold Change
same,Rep 2 Live Cells [Fold Change],"HG3 cells; HG3, 1 nM, day 3",6.6 Fold Change
same,Rep 1 Live Cells [Fold Change],"HG3 cells; HG3, 1 nM, day 6",16.32 Fold Change
same,Rep 2 Live Cells [Fold Change],"HG3 cells; HG3, 1 nM, day 6",45.98 Fold Change
same,Rep 1 Live Cells [Fold Change],"HG3 cells; HG3, 1 nM, day 10",137.904 Fold Change
same,Rep 2 Live Cells [Fold Change],"HG3 cells; HG3, 1 nM, day 10",282.777 Fold Change
same,Rep 1 Live Cells [Fold Change],"HG3 cells; HG3, 1 nM, day 12",482.664 Fold Change
same,Rep 2 Live Cells [Fold Change],"HG3 cells; HG3, 1 nM, day 12",1404.46 Fold Change
same,Rep 1 Live Cells [Fold Change],"HG3 cells; HG3, 10 nM, day 0",1 Fold Change
same,Rep 2 Live Cells [Fold Change],"HG3 cells; HG3, 10 nM, day 0",1 Fold Change
same,Rep 1 Live Cells [Fold Change],"HG3 cells; HG3, 10 nM, day 3",3.27 Fold Change
same,Rep 2 Live Cells [Fold Change],"HG3 cells; HG3, 10 nM, day 3",4.767 Fold Change
same,Rep 1 Live Cells [Fold Change],"HG3 cells; HG3, 10 nM, day 6",11.445 Fold Change
same,Rep 2 Live Cells [Fold Change],"HG3 cells; HG3, 10 nM, day 6",11.6783 Fold Change
same,Rep 1 Live Cells [Fold Change],"HG3 cells; HG3, 10 nM, day 10",19.7426 Fold Change
same,Rep 2 Live Cells [Fold Change],"HG3 cells; HG3, 10 nM, day 10",14.8315 Fold Change
same,Rep 1 Live Cells [Fold Change],"HG3 cells; HG3, 10 nM, day 12",31.5074 Fold Change
same,Rep 2 Live Cells [Fold Change],"HG3 cells; HG3, 10 nM, day 12",21.021 Fold Change
same,Rep 1 Live Cells [Fold Change],"HG3 cells; HG3, 100 nM, day 0",1 Fold Change
same,Rep 2 Live Cells [Fold Change],"HG3 cells; HG3, 100 nM, day 0",1 Fold Change
same,Rep 1 Live Cells [Fold Change],"HG3 cells; HG3, 100 nM, day 3",3.157 Fold Change
same,Rep 2 Live Cells [Fold Change],"HG3 cells; HG3, 100 nM, day 3",5.133 Fold Change
same,Rep 1 Live Cells [Fold Change],"HG3 cells; HG3, 100 nM, day 6",5.956 Fold Change
same,Rep 2 Live Cells [Fold Change],"HG3 cells; HG3, 100 nM, day 6",6.365 Fold Change
same,Rep 1 Live Cells [Fold Change],"HG3 cells; HG3, 100 nM, day 10",4.824 Fold Change
same,Rep 2 Live Cells [Fold Change],"HG3 cells; HG3, 100 nM, day 10",6.047 Fold Change
same,Rep 1 Live Cells [Fold Change],"HG3 cells; HG3, 100 nM, day 12",3.339 Fold Change
same,Rep 2 Live Cells [Fold Change],"HG3 cells; HG3, 100 nM, day 12",4.755 Fold Change
same,Rep 1 Live Cells [Fold Change],"HG3 cells; HG3, 1 µM, day 0",1 Fold Change
same,Rep 2 Live Cells [Fold Change],"HG3 cells; HG3, 1 µM, day 0",1 Fold Change
same,Rep 1 Live Cells [Fold Change],"HG3 cells; HG3, 1 µM, day 3",3.733 Fold Change
same,Rep 2 Live Cells [Fold Change],"HG3 cells; HG3, 1 µM, day 3",5.933 Fold Change
same,Rep 1 Live Cells [Fold Change],"HG3 cells; HG3, 1 µM, day 6",6.21 Fold Change
same,Rep 2 Live Cells [Fold Change],"HG3 cells; HG3, 1 µM, day 6",5.993 Fold Change
same,Rep 1 Live Cells [Fold Change],"HG3 cells; HG3, 1 µM, day 10",3.912 Fold Change
same,Rep 2 Live Cells [Fold Change],"HG3 cells; HG3, 1 µM, day 10",5.304 Fold Change
same,Rep 1 Live Cells [Fold Change],"HG3 cells; HG3, 1 µM, day 12",2.641 Fold Change
same,Rep 2 Live Cells [Fold Change],"HG3 cells; HG3, 1 µM, day 12",3.878 Fold Change
same,anti-proliferative potency compared to PRT382,HG3 cells; high doses (1µM),similar
same,anti-proliferative potency compared to PRT382,"HG3 cells; lower doses (10nM, 100nM)",more potent
same,Rep 1 Live Cells [Fold Change],"Mec-1 cells; Mec-1, 1 nM, day 0",1 Fold Change
same,Rep 2 Live Cells [Fold Change],"Mec-1 cells; Mec-1, 1 nM, day 0",1 Fold Change
same,Rep 1 Live Cells [Fold Change],"Mec-1 cells; Mec-1, 1 nM, day 3",5.6 Fold Change
same,Rep 2 Live Cells [Fold Change],"Mec-1 cells; Mec-1, 1 nM, day 3",6.6 Fold Change
same,Rep 1 Live Cells [Fold Change],"Mec-1 cells; Mec-1, 1 nM, day 6",24.6 Fold Change
same,Rep 2 Live Cells [Fold Change],"Mec-1 cells; Mec-1, 1 nM, day 6",45.98 Fold Change
same,Rep 1 Live Cells [Fold Change],"Mec-1 cells; Mec-1, 1 nM, day 10",216 Fold Change
same,Rep 2 Live Cells [Fold Change],"Mec-1 cells; Mec-1, 1 nM, day 10",282.777 Fold Change
same,Rep 1 Live Cells [Fold Change],"Mec-1 cells; Mec-1, 1 nM, day 12",1400 Fold Change
same,Rep 2 Live Cells [Fold Change],"Mec-1 cells; Mec-1, 1 nM, day 12",1404.46 Fold Change
same,Rep 1 Live Cells [Fold Change],"Mec-1 cells; Mec-1, 10 nM, day 0",1 Fold Change
same,Rep 2 Live Cells [Fold Change],"Mec-1 cells; Mec-1, 10 nM, day 0",1 Fold Change
same,Rep 1 Live Cells [Fold Change],"Mec-1 cells; Mec-1, 10 nM, day 3",4.77 Fold Change
same,Rep 2 Live Cells [Fold Change],"Mec-1 cells; Mec-1, 10 nM, day 3",4.767 Fold Change
same,Rep 1 Live Cells [Fold Change],"Mec-1 cells; Mec-1, 10 nM, day 6",9.22 Fold Change
same,Rep 2 Live Cells [Fold Change],"Mec-1 cells; Mec-1, 10 nM, day 6",11.6783 Fold Change
same,Rep 1 Live Cells [Fold Change],"Mec-1 cells; Mec-1, 10 nM, day 10",14.1 Fold Change
same,Rep 2 Live Cells [Fold Change],"Mec-1 cells; Mec-1, 10 nM, day 10",14.8315 Fold Change
same,Rep 1 Live Cells [Fold Change],"Mec-1 cells; Mec-1, 10 nM, day 12",6.51 Fold Change
same,Rep 2 Live Cells [Fold Change],"Mec-1 cells; Mec-1, 10 nM, day 12",21.021 Fold Change
same,Rep 1 Live Cells [Fold Change],"Mec-1 cells; Mec-1, 100 nM, day 0",1 Fold Change
same,Rep 2 Live Cells [Fold Change],"Mec-1 cells; Mec-1, 100 nM, day 0",1 Fold Change
same,Rep 1 Live Cells [Fold Change],"Mec-1 cells; Mec-1, 100 nM, day 3",4.7 Fold Change
same,Rep 2 Live Cells [Fold Change],"Mec-1 cells; Mec-1, 100 nM, day 3",5.133 Fold Change
same,Rep 1 Live Cells [Fold Change],"Mec-1 cells; Mec-1, 100 nM, day 6",7 Fold Change
same,Rep 2 Live Cells [Fold Change],"Mec-1 cells; Mec-1, 100 nM, day 6",6.365 Fold Change
same,Rep 1 Live Cells [Fold Change],"Mec-1 cells; Mec-1, 100 nM, day 10",3.48 Fold Change
same,Rep 2 Live Cells [Fold Change],"Mec-1 cells; Mec-1, 100 nM, day 10",6.047 Fold Change
same,Rep 1 Live Cells [Fold Change],"Mec-1 cells; Mec-1, 100 nM, day 12",1.18 Fold Change
same,Rep 2 Live Cells [Fold Change],"Mec-1 cells; Mec-1, 100 nM, day 12",4.755 Fold Change
same,Rep 1 Live Cells [Fold Change],"Mec-1 cells; Mec-1, 1 µM, day 0",1 Fold Change
same,Rep 2 Live Cells [Fold Change],"Mec-1 cells; Mec-1, 1 µM, day 0",1 Fold Change
same,Rep 1 Live Cells [Fold Change],"Mec-1 cells; Mec-1, 1 µM, day 3",3.93 Fold Change
same,Rep 2 Live Cells [Fold Change],"Mec-1 cells; Mec-1, 1 µM, day 3",5.933 Fold Change
same,Rep 1 Live Cells [Fold Change],"Mec-1 cells; Mec-1, 1 µM, day 6",5.81 Fold Change
same,Rep 2 Live Cells [Fold Change],"Mec-1 cells; Mec-1, 1 µM, day 6",5.993 Fold Change
same,Rep 1 Live Cells [Fold Change],"Mec-1 cells; Mec-1, 1 µM, day 10",3.37 Fold Change
same,Rep 2 Live Cells [Fold Change],"Mec-1 cells; Mec-1, 1 µM, day 10",5.304 Fold Change
same,Rep 1 Live Cells [Fold Change],"Mec-1 cells; Mec-1, 1 µM, day 12",1.63 Fold Change
same,Rep 2 Live Cells [Fold Change],"Mec-1 cells; Mec-1, 1 µM, day 12",3.878 Fold Change
same,anti-proliferative potency compared to PRT382,Mec-1 cells; high doses (1µM),similar
same,anti-proliferative potency compared to PRT382,"Mec-1 cells; lower doses (10nM, 100nM)",more potent
Cc1noc(C)c1-c1cnc2c(-c3ccc(C(=O)O)cc3)cn([C@@H](C)c3ccccn3)c2c1 [PLX51107],PRMT5 protein expression,"[1]; 72h 10µM PLX51107, CLL cells stimulated with 21.7 µg/mL CpG, n=5 patients",Reduced
same,PRMT5 mRNA expression,"[1]; 72h 10µM PLX51107, CLL cells stimulated with 21.7 µg/mL CpG, n=8 patients",Reduced
same,PRMT5 Relative Expression (2-ΔCt),"[1]; individual samples, Supplemental Figure 7C",1.507 and 1.2928 and 1.349 and 0.5743 and 1.232 and 0.9553 and 1.659 and 0.935
same,BRD4 occupancy at the PRMT5 locus enhancer,[2],lost
